Structures are written as SMILES. In brackets after ≈: the same amount, converted by molar mass. Where a name gives a salt, the structure may show the parent alone.

The series in a line: Solubility in fasted-state simulated colonic fluid (FaSSCoF) at pH 6.5. The format is physicochemical. Conditions: 25 °C, pH 6.5, fassgf or other biorelevant, thermodynamic from solid. How it is done:
The solubilities of compounds of the invention in FaSSCoF at pH 6.5 are determined using a modification of a previously-reported procedure (Vertzoni, M., et al. Pharm. Res. 2010, 27, 2187-2196). In place of the bile salt extract employed in the original procedure (which extract is no longer available), the modified procedure uses a mixture of sodium taurochlorate (0.15 g), glycocholic acid (0.15 g), ursodeoxycholic acid (0.05 g), cholic acid (0.05 g), and glycodeoxycholic acid (0.05 g). These five bile acids are ground together with a mortar and pestle to produce a fine white powder that is incorporated into the FaSSCoF, as outlined below.
Tris(hydroxymethyl)aminomethane (Tris; 0.275 g) and maleic acid (0.44 g) are dissolved in water (35 mL) to give a solution whose pH is adjusted to 6.5 by treatment with 0.5M NaOH (ca. 12 mL). The solution is then made up to 50 mL with water. A portion of this Tris/maleate buffer solution (ca. 25 mL) is added to a 0.5 L round-bottomed flask, before being treated with 0.00565 g of the bile acid mixture described above. Solutions of phosphatidylcholine (0.0111 g) in DCM (0.15 mL) and palmitic acid (0.0013 g) in DCM (0.15 mL) are added, then the organic solvent is evaporated off under reduced pressure at 40° C. until a clear solution, with no perceptible DCM odour, is achieved. The volume of the evaporated solution is adjusted to 50 mL by addition of the remainder of Tris/maleate buffer, then BSA (0.115 g) is added, before being dissolved by gentle agitation.
Test compounds are suspended in the pH 6.5 FaSSCoF medium to give a maximum final concentration of 2-10 mg/mL. The suspensions are equilibrated at 25° C. for 24 h, before being filtered through a glass fibre C filter. The filtrates are then diluted as appropriate for injection and quantification by HPLC with reference to a standard. Different volumes of the standard, diluted and undiluted sample solutions are injected and the solubilities are calculated using the peak areas determined by integration of the peak found at the same retention time as the principal peak in the standard injection.

Where [1] appears, read: pH 6.5 FaSSCoF Solubility (mg/mL) Run 1.
[2] abbreviates: pH 6.5 FaSSCoF Solubility (mg/mL) Run 2.

On to `COc1cc(Nc2cc(Oc3ccc(NC(=O)Nc4cc(C(C)(C)C)cc(NS(C)(=O)=O)c4OC)c4ccccc34)ccn2)ccc1C(=O)NCCNC(=O)CCC(=O)O` [17(cd) (hydrochloride salt), 4-((2-(4-((4-((4-(3-(5-(tert-Butyl)-2-methoxy-3-(methylsulfonamido)phenyl)ureido)-naphthalen-1-yl)oxy)pyridin-2-yl)amino)-2-methoxybenzamido)ethyl)amino)-4-oxobutanoic acid], for which the thermodynamic solubility at 24 h is 51 µg/mL under setting [1] and 49 µg/mL under setting [2].

`COc1cc(Nc2cc(Oc3ccc(NC(=O)Nc4cc(C(C)(C)C)cc(NS(C)(=O)=O)c4OC)c4ccccc34)ccn2)ccc1C(=O)NCCN1CCN(C2CC2)CC1` [Example 26, 4-((4-((4-(3-(5-(tert-Butyl)-2-methoxy-3-(methylsulfonamido)phenyl)ureido)naphthalen-1-yl)oxy)pyridin-2-yl)amino)-N-(2-(4-cyclopropylpiperazin-1-yl)ethyl)-2-methoxybenzamide]: the thermodynamic solubility at 24 h reads like this: under setting [1], 11 µg/mL (≈ 12.9 µM); under setting [2], 11 µg/mL (≈ 12.9 µM).

`COc1cc(Nc2cc(Oc3ccc(NC(=O)Nc4cc(C(C)(C)C)cc(NS(C)(=O)=O)c4OC)c4ccccc34)ccn2)ccc1C(=O)NC[C@H](O)[C@H](O)[C@H](O)CO` [Example 42, 4-((4-((4-(3-(5-(tert-Butyl)-2-methoxy-3-(methylsulfonamido)phenyl)ureido)naphthalen-1-yl)oxy)pyridin-2-yl)amino)-2-methoxy-N-((2S,3S,4R)-2,3,4,5-tetrahydroxypentyl)benzamide]: the solubility (thermodynamic) at 24 h reads like this: under setting [1], 7 µg/mL (≈ 8.4 µM); under setting [2], 9 µg/mL (≈ 10.8 µM).

As for `COc1cc(Nc2cc(Oc3ccc(NC(=O)Nc4cc(C(C)(C)C)cc(NS(C)(=O)=O)c4OC)c4ccccc34)ccn2)ccc1C(=O)NCCN1CCN(C(=O)CN(C)C)CC1` [17(cj), 4-((4-((4-(3-(5-(tert-Butyl)-2-methoxy-3-(methylsulfonamido)phenyl)ureido)naphthalen-1-yl)oxy)pyridin-2-yl)amino)-N-(2-(4-(2-(dimethylamino)acetyl)piperazin-1-yl)ethyl)-2-methoxybenzamide], the thermodynamic solubility at 24 h reads like this: under setting [1], 6 µg/mL (≈ 6.7 µM); under setting [2], 6 µg/mL (≈ 6.7 µM).

For the compound `COc1cc(Nc2cc(Oc3ccc(NC(=O)Nc4cc(C(C)(C)C)cc(NS(C)(=O)=O)c4OC)c4ccccc34)ccn2)ccc1C(=O)NCC[N+]1([O-])CCOCC1` [Example 33, 4-(2-(4-((4-((4-(3-(5-(tert-Butyl)-2-methoxy-3-(methylsulfonamido)phenyl)ureido)naphthalen-1-yl)oxy)pyridin-2-yl)amino)-2-methoxybenzamido)ethyl)morpholine 4-oxide], the solubility (thermodynamic) at 24 h under setting [1] is 5 µg/mL (≈ 6.04 µM) and the thermodynamic solubility at 24 h under setting [2] was 5 µg/mL (≈ 6.04 µM).

As for `COc1cc(Nc2cc(Oc3ccc(NC(=O)Nc4cc(C(C)(C)C)cc(NS(C)(=O)=O)c4OC)c4ccccc34)ccn2)cc(OC)c1C(=O)NC1CCN(C)CC1` [17(bz), 4-((4-((4-(3-(5-(tert-Butyl)-2-methoxy-3-(methylsulfonamido)phenyl)ureido)naphthalen-1-yl)oxy)pyridin-2-yl)amino)-2,6-dimethoxy-N-(1-methylpiperidin-4-yl)benzamide], the thermodynamic solubility at 24 h was 21 µg/mL (≈ 25.4 µM) under setting [1], 26 µg/mL (≈ 31.5 µM) under setting [2], 14 µg/mL (≈ 16.9 µM) (pH 6.5 FaSSCoF Solubility (mg/mL) Run 3) and 19 µg/mL (≈ 23 µM) (pH 6.5 FaSSCoF Solubility (mg/mL) Run 4).

`COc1cc(Nc2cc(Oc3ccc(NC(=O)Nc4cc(C(C)(C)C)cc(NS(C)(=O)=O)c4OC)c4ccccc34)ccn2)ccc1C(=O)NCCOP(=O)(O)O` [35 (sodium salt), 2-(4-((4-((4-(3-(5-(tert-Butyl)-2-methoxy-3-(methylsulfonamido)phenyl)ureido)naphthalen-1-yl)oxy)pyridin-2-yl)amino)-2-methoxybenzamido)ethyl dihydrogen phosphate] yielded a thermodynamic solubility at 24 h under setting [1] above 3500 µg/mL and a thermodynamic solubility at 24 h under setting [2] above 4200 µg/mL.

The values are drawn from patent US9751837B2, “Kinase inhibitors” (RESPIVERT LIMITED, priority 2014, dated 2017).
